Experimental data: ChEMBL document CHEMBL1667722, “Radical scavenging and antioxidant activities of isocoumarins and a phthalide from the endophytic fungus Colletotrichum sp” (J Nat Prod, 2011)

How the values were obtained:
HepG2 = experiment: Cytotoxicity against human HepG2 cells by MTT assay; type: functional, cell-based
[1] = Cytotoxicity against human HuCCA1 cells by MTT assay; type: functional, cell-based; conditions: HuCC-A1
A549 = experiment: Cytotoxicity against human A549 cells by MTT assay; type: functional, cell-based
MOLT-3 = experiment: Cytotoxicity against human MOLT3 cells by XTT assay; type: functional, cell-based
HL-60 = experiment: Antioxidant activity in human HL60 cells assessed as inhibition of TPA-induced superoxide anion radical production; type: functional, cell-based
Aromatase = target: T1, Aromatase (Homo sapiens, UniProt P11511); experiment: Inhibition of CYP19
T1 sequence (P11511 whole entry): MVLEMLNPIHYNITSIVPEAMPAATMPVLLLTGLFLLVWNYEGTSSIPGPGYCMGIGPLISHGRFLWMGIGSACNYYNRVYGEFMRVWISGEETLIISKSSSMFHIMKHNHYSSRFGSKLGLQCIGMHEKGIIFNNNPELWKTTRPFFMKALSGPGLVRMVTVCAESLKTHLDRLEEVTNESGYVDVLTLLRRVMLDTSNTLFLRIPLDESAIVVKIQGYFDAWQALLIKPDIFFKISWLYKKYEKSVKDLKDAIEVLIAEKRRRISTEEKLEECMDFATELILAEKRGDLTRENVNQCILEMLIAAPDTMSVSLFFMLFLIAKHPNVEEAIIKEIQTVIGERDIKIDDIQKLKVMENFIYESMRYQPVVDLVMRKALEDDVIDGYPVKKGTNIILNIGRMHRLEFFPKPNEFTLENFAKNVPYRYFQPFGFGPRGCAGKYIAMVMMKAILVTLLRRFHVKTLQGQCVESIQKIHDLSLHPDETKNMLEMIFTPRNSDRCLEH

[2] = target: Xanthine dehydrogenase/oxidase (Homo sapiens, UniProt P47989); experiment: Inhibition of Xanthine oxidase
Chain of Xanthine dehydrogenase/oxidase (P47989 whole entry): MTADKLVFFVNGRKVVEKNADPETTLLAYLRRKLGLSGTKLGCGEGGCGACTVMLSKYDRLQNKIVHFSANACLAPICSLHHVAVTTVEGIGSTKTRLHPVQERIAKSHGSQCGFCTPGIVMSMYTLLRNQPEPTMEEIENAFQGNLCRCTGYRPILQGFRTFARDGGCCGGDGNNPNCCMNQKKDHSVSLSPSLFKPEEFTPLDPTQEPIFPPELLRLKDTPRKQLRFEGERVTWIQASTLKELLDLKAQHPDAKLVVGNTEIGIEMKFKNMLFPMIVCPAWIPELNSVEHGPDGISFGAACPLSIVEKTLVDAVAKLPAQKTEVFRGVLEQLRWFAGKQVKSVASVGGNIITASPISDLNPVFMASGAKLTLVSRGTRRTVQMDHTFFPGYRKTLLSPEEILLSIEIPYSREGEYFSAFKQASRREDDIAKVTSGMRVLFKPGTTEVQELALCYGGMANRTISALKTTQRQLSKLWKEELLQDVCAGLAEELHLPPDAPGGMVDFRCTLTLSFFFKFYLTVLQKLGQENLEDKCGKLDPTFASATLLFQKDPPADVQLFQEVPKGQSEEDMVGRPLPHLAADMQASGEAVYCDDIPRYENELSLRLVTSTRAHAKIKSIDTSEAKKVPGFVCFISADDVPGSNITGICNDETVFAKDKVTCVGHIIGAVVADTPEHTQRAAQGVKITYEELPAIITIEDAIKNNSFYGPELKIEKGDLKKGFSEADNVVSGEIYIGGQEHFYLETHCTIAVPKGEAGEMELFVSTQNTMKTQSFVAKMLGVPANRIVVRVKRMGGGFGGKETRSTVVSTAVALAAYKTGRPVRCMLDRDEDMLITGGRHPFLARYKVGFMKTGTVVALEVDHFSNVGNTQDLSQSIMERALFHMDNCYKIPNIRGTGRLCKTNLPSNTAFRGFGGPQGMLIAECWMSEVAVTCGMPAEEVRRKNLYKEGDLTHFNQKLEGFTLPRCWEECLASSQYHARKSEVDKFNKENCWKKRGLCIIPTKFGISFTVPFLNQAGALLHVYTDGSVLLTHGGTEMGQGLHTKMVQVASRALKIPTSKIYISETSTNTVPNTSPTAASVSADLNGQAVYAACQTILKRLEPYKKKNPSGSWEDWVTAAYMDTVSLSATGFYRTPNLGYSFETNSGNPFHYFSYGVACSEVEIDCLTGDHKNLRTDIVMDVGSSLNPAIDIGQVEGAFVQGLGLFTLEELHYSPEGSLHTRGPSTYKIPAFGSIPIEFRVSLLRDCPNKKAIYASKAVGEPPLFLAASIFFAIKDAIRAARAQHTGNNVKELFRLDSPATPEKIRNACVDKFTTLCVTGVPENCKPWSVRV

[3] = system: Radical scavenging activity; experiment: Antioxidant activity assessed as DPPH radical scavenging activity; type: functional
[4] = Antioxidant activity assessed as inhibition of xanthine-xanthine oxidase generated superoxide anion radical production; type: functional

Row | SMILES | IC50 (HepG2) [µM] | IC50 [1] [µM] | IC50 (A549) [µM] | IC50 (MOLT-3) [µM] | IC50 (HL-60) [µM] | IC50 (Aromatase) [µM] | IC50 [2] [µM] | IC50 [3] [µM] | IC50 [4] [µM]
1 | COc1cccc2c1C(=O)c1c(O)c3c(c(O)c1C2=O)C[C@@](O)(C(=O)CO)C[C@@H]3O[C@H]1C[C@H](N)[C@H](O)[C@H](C)O1 [DOXORUBICIN] | 0.29 | 0.67 | 0.34 |  |  |  |  |  | 
2 | COc1cc([C@@H]2c3cc4c(cc3[C@@H](O[C@@H]3O[C@@H]5CO[C@@H](C)O[C@H]5[C@H](O)[C@H]3O)[C@H]3COC(=O)[C@H]23)OCO4)cc(OC)c1O [ETOPOSIDE] | 15.8 |  |  | 0.03 |  |  |  |  | 
3 | CCCC(=O)CC[C@H]1OC(=O)c2c1cc(OC)c(OC)c2O [COLLETOTRIALIDE] | > 162 | > 162 | > 162 | 148 | > 130 | > 16.2 | > 648 | > 324 | 
4 | CCC[C@H]1C[C@H]2OC(=O)c3c(cc(OC)c(OC)c3O)[C@H]2O1 [MONOCERIN] | > 162 | > 162 | > 162 | 153 | > 130 | > 16.2 | > 648 | > 324 | > 648
5 | CCC[C@H](O)C[C@@H]1Cc2cc(OC)c(OC)c(O)c2C(=O)O1 [FUSARENTIN 6,7-DIMETHYLETHER] | 121 | > 161 | > 161 | 115 | > 128 | > 16.1 | > 644 | > 322 | 
6 | Oc1ncnc2[nH]ncc12 [ALLOPURINOL] |  |  |  |  |  |  |  |  | 3
7 | O=C1O[C@H]([C@@H](O)CO)C(O)=C1O [ASCORBIC ACID] |  |  |  |  |  |  |  | 21.2 | 
8 | CCC[C@@H](O)C[C@H]1OC(=O)c2c(cc(OC)c(OC)c2O)[C@H]1O |  |  |  | > 153 | > 122 | > 15.3 | > 612 | > 306 | 352
9 | CCC[C@H]1C[C@H]2OC(=O)c3c(cc(OC)c(O)c3O)[C@H]2O1 | 23.7 | > 170 | > 170 | 124 | > 136 | > 16.9 | > 679 | 23.4 | 52.6
10 | CCC[C@H](O)C[C@@H]1Cc2cc(OC)c(O)c(O)c2C(=O)O1 [FUSARENTIN 6-METHYL ETHER] |  |  |  | > 169 | > 135 | > 16.8 | > 675 | 16.4 | 4.3
